Results taken from ChEMBL document CHEMBL5532720, “A Potent Solution for Tumor Growth and Angiogenesis Suppression via an ELR+CXCL-CXCR1/2 Pathway Inhibitor” (ACS Med Chem Lett, 2024).
In brackets after ≈: the same amount, converted by molar mass. Activity calls are given as the source filed them. No cut-off for these calls is given here.

Assays:
[1] = target: Serine/threonine-protein kinase PLK1 (Homo sapiens) (UniProt P53350); test: Inhibition of PLK1 (unknown origin) at 10 uM in presence of ATP at Km concentration
[2] = Half-life in NOD SCID mouse at 100 mg/kg, po; format: ADME, organism-based; details: in vivo
[3] = target: Mitogen-activated protein kinase 9 (Homo sapiens) (UniProt P45984); test: Inhibition of MAPK9 (unknown origin) at 10 uM in presence of ATP at Km concentration
[4] = system: RCC4; test: Antiproliferative activity against human RCC4 cells incubated for 48 hrs by XTT assay; format: functional, cell-based; details: RCC4, 48 h
[5] = target: Mitogen-activated protein kinase kinase kinase 20 (Homo sapiens) (UniProt Q9NYL2); test: Inhibition of ZAK (unknown origin) at 10 uM in presence of ATP at Km concentration
[6] = system: A498; test: Antimetastatic activity against human A498 cells labeled with vybrant DiD cell-labeling solution xenografted in zebrafish embryo assessed as fold reduction in metastasis area at 1 uM pre-infected with cells for 24 hrs followed by compound addition and measured after 48 hrs by fluorescence microscopic imaging analysis; format: functional
[7] = Genotoxicity in Salmonella typhimurium TA1537 upto 100 uM in presence of S9 fraction by Ames test; format: toxicity, subcellular; details: salmonella enterica subsp. enterica serovar typhimurium, s9, 100 µM
[8] = target: Casein kinase I isoform epsilon (Homo sapiens) (UniProt P49674); test: Inhibition of CSNK1E (unknown origin) at 10 uM in presence of ATP at Km concentration
[9] = target: T1, Interleukin-8 receptors, CXCR1/CXCR2 (Homo sapiens) (UniProt P25025+P25024); test: Inhibition of CXCR1/2 pathway in human A498 cells assessed as reduction in ERK phosphorylation at 2.5 uM incubated for 24 to 48 hrs by immunoblot analysis; format: functional, cell-based; details: time 24-48 hrs
[10] = Stability in mouse plasma assessed as compound remaining measured after 120 mins; format: ADME, cell-free; details: read-out: Stability
[11] = Oral bioavailability in NOD SCID mouse at 100 mg/kg; format: ADME, organism-based; details: in vivo
[12] = target: Ephrin type-B receptor 4 (Homo sapiens) (UniProt P54760); test: Inhibition of EPHB4 (unknown origin) at 10 uM in presence of ATP at Km concentration
Sequence of Ephrin type-B receptor 4 (Homo sapiens) (P54760 whole entry): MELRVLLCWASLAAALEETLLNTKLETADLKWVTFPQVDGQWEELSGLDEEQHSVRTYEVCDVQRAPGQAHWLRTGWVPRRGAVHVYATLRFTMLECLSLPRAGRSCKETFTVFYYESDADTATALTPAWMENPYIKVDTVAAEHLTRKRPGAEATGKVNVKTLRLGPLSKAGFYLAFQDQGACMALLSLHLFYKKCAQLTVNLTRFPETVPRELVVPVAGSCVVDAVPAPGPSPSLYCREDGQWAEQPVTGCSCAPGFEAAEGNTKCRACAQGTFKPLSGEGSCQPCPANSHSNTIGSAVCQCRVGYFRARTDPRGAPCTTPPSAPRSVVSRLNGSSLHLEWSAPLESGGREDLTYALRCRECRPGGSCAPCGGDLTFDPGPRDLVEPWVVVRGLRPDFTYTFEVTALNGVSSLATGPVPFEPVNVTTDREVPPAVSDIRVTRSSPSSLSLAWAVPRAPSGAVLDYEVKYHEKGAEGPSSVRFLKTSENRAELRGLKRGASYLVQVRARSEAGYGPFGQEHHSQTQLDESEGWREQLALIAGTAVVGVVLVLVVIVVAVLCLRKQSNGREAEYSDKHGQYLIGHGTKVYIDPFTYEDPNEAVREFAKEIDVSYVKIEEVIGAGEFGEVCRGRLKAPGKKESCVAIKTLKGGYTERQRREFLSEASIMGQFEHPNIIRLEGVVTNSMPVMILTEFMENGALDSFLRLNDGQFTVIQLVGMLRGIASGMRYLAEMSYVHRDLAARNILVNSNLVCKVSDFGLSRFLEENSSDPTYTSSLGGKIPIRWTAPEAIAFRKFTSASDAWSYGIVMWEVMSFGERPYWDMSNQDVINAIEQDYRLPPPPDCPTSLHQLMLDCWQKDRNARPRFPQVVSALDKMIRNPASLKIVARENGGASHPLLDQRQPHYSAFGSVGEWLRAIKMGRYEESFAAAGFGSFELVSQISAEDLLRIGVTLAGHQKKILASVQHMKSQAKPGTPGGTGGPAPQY

[13] = target: Vascular endothelial growth factor receptor 2 (Homo sapiens) (UniProt P35968); test: Inhibition of KDR (unknown origin) at 10 uM in presence of ATP at Km concentration
[14] = Tmax in NOD SCID mouse at 200 mg/kg, po; format: ADME, organism-based; details: in vivo
[15] = Cmax in NOD SCID mouse at 100 mg/kg, po; format: ADME, organism-based; details: in vivo
[16] = system: Cisplatin and radiotherapy resistant CAL33RR; test: Inhibition of cell invasion in human Cisplatin and radiotherapy resistant CAL33RR cells cultured as 3D spheroid at 5 uM measured after 7 days by light microscopic imaging analysis; format: functional, cell-based; details: time 7.0 day
[17] = target: Phosphorylase b kinase gamma catalytic chain, liver/testis isoform (Homo sapiens) (UniProt P15735); test: Inhibition of PHKG2 (unknown origin) at 10 uM in presence of ATP at Km concentration
Sequence of Phosphorylase b kinase gamma catalytic chain, liver/testis isoform (Homo sapiens) (P15735 whole entry, canonical isoform): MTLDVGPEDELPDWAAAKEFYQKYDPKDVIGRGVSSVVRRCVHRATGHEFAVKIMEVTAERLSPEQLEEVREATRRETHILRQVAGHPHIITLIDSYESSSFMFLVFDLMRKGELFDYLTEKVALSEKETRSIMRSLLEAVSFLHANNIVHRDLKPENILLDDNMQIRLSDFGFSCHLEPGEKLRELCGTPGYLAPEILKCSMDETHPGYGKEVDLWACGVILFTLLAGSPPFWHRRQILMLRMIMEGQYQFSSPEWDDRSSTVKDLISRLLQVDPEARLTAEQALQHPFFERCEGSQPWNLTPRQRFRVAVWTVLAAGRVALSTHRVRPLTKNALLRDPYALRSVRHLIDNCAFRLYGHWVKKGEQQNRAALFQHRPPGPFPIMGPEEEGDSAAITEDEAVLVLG

[18] = system: Cisplatin and radiotherapy resistant CAL33RR; test: Inhibition of CXCL8-dependent cell migration in human Cisplatin and radiotherapy resistant CAL33RR cells at 0.5 uM incubated for 24 hrs by Boyden chamber based crystal violet staining analysis; format: functional
[19] = target: Eukaryotic elongation factor 2 kinase (Homo sapiens) (UniProt O00418); test: Inhibition of EEF2K (unknown origin) at 10 uM in presence of ATP at Km concentration
[20] = Stability in human hepatocytes assessed as half-life; format: ADME, cell-based, Hepatocyte
[21] = C0 in NOD SCID mouse at 1 mg/kg, iv; format: ADME, organism-based; details: in vivo
[22] = target: T1, Interleukin-8 receptors, CXCR1/CXCR2 (Homo sapiens); test: Inhibition of CXCR1/2 pathway in human A498 cells assessed as reduction in AKT phosphorylation at 2.5 uM incubated for 24 to 48 hrs by immunoblot analysis; format: functional, cell-based; details: time 24-48 hrs
[23] = system: A498; test: Downregulation of CXCL5 mRNA expression in human A498 cells at 1 to 2.5 uM incubated for 48 hrs by qPCR analysis; format: functional, cell-based; details: dose 1-2.5 µM
[24] = target: Protein kinase C eta type (Homo sapiens) (UniProt P24723); test: Inhibition of PRKCH (unknown origin) at 10 uM in presence of ATP at Km concentration
Sequence of Protein kinase C eta type (Homo sapiens) (P24723 whole entry): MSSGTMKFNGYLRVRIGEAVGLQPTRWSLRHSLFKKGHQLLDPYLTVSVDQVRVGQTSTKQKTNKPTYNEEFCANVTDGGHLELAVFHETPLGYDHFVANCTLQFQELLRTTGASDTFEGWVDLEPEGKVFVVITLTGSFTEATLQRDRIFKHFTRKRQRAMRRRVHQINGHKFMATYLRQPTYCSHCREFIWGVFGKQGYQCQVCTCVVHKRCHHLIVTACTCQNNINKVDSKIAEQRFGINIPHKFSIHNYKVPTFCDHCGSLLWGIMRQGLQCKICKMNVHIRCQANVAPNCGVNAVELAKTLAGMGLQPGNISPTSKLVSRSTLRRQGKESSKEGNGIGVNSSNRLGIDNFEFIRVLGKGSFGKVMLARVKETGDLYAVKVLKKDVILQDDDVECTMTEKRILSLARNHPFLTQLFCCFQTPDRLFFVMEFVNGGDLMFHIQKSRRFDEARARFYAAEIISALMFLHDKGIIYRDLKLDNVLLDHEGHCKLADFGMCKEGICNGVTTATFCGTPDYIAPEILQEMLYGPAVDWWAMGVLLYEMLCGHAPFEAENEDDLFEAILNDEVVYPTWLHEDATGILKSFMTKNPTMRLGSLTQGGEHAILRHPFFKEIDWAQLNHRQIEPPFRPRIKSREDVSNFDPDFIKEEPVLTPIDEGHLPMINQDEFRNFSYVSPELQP

[25] = Clearance in NOD SCID mouse at 1 mg/kg, iv; format: ADME, organism-based; details: in vivo
[26] = Genotoxicity in Salmonella typhimurium TA1535 upto 100 uM in absence of S9 fraction by Ames test; format: toxicity; details: salmonella enterica subsp. enterica serovar typhimurium, s9, 100 µM
[27] = Stability in mouse microsomes assessed as compound remaining measured after 1 hrs; format: ADME, Microsome; details: read-out: Stability
[28] = system: A498; test: Antiproliferative activity against human A498 cells incubated for 48 hrs by XTT assay; format: functional, cell-based; details: A498, 48 h
[29] = target: Mitogen-activated protein kinase kinase kinase kinase 3 (Homo sapiens) (UniProt Q8IVH8); test: Inhibition of MAP4K3 (unknown origin) at 10 uM in presence of ATP at Km concentration
Sequence of Mitogen-activated protein kinase kinase kinase kinase 3 (Homo sapiens) (Q8IVH8 whole entry): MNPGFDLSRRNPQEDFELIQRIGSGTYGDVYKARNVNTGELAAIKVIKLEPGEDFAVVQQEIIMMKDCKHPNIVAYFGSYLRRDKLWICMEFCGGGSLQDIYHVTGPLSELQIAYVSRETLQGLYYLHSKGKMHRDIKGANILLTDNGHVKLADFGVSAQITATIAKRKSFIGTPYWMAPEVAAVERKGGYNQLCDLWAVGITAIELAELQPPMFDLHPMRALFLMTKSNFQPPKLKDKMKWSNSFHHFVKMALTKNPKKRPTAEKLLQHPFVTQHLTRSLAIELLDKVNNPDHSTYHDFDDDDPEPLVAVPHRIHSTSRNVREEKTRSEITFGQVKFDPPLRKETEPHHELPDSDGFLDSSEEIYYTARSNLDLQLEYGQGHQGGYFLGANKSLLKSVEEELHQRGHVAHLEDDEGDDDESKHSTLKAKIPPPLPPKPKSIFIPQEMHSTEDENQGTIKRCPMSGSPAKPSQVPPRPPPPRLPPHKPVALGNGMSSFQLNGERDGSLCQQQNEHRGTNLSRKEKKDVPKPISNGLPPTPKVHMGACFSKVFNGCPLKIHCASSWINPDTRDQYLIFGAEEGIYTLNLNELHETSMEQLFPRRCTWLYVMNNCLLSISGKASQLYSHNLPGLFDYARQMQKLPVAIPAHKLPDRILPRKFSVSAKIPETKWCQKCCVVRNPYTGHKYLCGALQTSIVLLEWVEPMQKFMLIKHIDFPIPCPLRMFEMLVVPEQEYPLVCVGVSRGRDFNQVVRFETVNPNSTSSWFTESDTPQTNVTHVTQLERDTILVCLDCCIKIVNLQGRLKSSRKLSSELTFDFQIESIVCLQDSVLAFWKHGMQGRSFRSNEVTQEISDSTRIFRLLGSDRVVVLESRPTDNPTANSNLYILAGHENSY

[30] = Toxicity in athymic nude mouse xenografted with human 786-0 cells assessed as discernible signs at 100 mg/kg, po administered twice daily via gavage for 28 days; format: organism-based; details: in vivo, 672 h, time 28 day
[31] = Aqueous solubility of compound in PBS; format: physicochemical
[32] = target: Tyrosine-protein kinase receptor UFO (Homo sapiens) (UniProt P30530); test: Inhibition of AXL (unknown origin) at 10 uM in presence of ATP at Km concentration
Sequence of Tyrosine-protein kinase receptor UFO (Homo sapiens) (P30530 whole entry): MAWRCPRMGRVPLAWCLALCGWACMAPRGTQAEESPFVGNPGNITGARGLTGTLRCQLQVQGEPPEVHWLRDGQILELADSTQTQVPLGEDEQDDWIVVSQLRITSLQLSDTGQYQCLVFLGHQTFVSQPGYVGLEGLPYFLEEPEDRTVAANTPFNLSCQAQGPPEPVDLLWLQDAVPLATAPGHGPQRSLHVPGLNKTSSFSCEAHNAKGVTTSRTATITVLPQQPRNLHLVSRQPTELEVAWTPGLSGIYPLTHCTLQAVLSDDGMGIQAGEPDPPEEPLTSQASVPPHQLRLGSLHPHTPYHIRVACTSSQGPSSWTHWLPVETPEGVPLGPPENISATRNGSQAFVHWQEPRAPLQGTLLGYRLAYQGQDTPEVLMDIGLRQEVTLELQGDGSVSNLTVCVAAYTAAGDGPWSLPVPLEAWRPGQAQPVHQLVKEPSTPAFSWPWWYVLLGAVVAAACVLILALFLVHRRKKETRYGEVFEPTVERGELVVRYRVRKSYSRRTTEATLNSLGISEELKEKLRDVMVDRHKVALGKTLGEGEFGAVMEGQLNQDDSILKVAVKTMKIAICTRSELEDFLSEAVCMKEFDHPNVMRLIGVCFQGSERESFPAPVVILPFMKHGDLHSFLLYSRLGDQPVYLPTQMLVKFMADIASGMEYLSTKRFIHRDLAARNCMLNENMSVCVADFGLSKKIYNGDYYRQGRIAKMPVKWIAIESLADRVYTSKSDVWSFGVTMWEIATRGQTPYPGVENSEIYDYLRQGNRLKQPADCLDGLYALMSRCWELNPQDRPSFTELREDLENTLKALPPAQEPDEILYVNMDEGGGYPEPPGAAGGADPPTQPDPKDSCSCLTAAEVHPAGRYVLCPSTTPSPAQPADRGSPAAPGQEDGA

[33] = Cmax in NOD SCID mouse at 200 mg/kg, po; format: ADME, organism-based; details: in vivo
[34] = system: CAL-33; test: Antiproliferative activity against human CAL-33 cells incubated for 48 hrs by XTT assay; format: functional, cell-based; details: CAL-33, 48 h
[35] = target: Casein kinase I isoform gamma-3 (Homo sapiens) (UniProt Q9Y6M4); test: Inhibition of CSNK1G3 (unknown origin) at 10 uM in presence of ATP at Km concentration
[36] = target: G protein-coupled receptor kinase 5 (Homo sapiens) (UniProt P34947); test: Inhibition of GRK5 (unknown origin) at 10 uM in presence of ATP at Km concentration
[37] = Toxicity in athymic nude mouse xenografted with human 786-0 cells assessed as effect on behavior at 100 mg/kg, po administered twice daily via gavage for 28 days; format: organism-based; details: in vivo, 672 h, time 28 day
[38] = Volume of distribution in NOD SCID mouse at 1 mg/kg, iv; format: ADME, organism-based; details: in vivo
[39] = Antiproliferative activity against human Cisplatin and radiotherapy resistant CAL33RR cells incubated for 48 hrs by XTT assay; format: functional, cell-based
[40] = Toxicity in athymic nude mouse xenografted with human 786-0 cells assessed as effect on food consumption at 100 mg/kg, po administered twice daily via gavage for 28 days; format: organism-based; details: in vivo, 672 h, time 28 day
[41] = target: Serine/threonine-protein kinase D2 (Homo sapiens) (UniProt Q9BZL6); test: Inhibition of PRKD2 (unknown origin) at 10 uM in presence of ATP at Km concentration
Sequence of Serine/threonine-protein kinase D2 (Homo sapiens) (Q9BZL6 whole entry): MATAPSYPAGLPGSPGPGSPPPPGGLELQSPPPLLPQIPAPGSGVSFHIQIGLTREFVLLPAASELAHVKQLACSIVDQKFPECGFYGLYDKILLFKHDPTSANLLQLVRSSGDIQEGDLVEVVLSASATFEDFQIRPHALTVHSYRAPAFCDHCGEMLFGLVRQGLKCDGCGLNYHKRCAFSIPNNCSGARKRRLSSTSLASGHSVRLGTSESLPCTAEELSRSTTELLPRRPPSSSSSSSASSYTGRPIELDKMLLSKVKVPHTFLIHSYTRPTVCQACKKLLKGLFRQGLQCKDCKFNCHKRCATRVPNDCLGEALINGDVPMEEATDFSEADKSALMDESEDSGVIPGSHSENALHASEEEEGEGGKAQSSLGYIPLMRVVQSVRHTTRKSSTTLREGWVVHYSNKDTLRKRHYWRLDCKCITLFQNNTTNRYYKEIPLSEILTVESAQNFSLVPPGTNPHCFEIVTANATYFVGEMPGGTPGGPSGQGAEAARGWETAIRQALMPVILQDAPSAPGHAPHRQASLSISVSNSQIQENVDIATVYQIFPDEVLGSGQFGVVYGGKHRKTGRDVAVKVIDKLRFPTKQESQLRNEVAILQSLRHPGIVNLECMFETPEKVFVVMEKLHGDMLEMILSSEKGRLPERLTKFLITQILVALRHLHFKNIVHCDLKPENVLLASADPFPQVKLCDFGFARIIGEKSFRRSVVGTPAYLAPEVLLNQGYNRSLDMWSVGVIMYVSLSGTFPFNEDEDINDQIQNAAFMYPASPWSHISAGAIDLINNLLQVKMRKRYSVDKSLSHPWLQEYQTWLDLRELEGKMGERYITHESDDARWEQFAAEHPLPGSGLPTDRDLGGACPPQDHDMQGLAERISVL

[42] = target: Tyrosine-protein kinase Yes (Homo sapiens) (UniProt P07947); test: Inhibition of YES1 (unknown origin) at 10 uM in presence of ATP at Km concentration

O=C(Nc1cc(Cl)cc(Cl)c1)Nc1nc2ccc([N+](=O)[O-])cc2s1
inhibition [1]: inactive
half-life [2]: 2.2 h
inhibition [3]: inactive
IC50 [4]: 2 µM
inhibition [5]: inactive
fold change (FC) [6]: ~4
Activity [7]: Non-Toxic
inhibition [8]: inactive
inhibition [9]: Active
remaining at 2 h [10]: 101%
bioavailability [11]: 33%
inhibition [12]: inactive
inhibition [13]: inactive
Tmax [14]: 1 h
Cmax [15]: 2.8 µM
inhibition [16]: Active
inhibition [17]: inactive
inhibition [18]: Active
inhibition [19]: inactive
half-life [20]: 0.643 h
C0 [21]: 3.6 µM
inhibition [22]: Active
Activity [23]: Active
inhibition [24]: inactive
clearance [25]: 39.3 mL/min/kg
Activity [26]: Non-Toxic
remaining at 1 h [27]: 76%
IC50 [28]: 2 µM
inhibition [29]: inactive
Activity [30]: Non-Toxic
solubility [31]: 1.9 µM (≈ 0.728 µg/mL)
inhibition [32]: inactive
Cmax [33]: 5.2 µM
IC50 [34]: 4 µM
inhibition [35]: inactive
inhibition [36]: inactive
Activity [37]: Non-Toxic
Vd [38]: 1 L/kg
IC50 [39]: 4 µM
Activity [40]: Non-Toxic
inhibition [41]: inactive
inhibition [42]: inactive
